This is an account of results in patent US8802664B2 (Bioproject, priority 2010, dated 2014).

As usually defined, the melting point is the temperature, or range, at which the solid turns liquid.

The target of data set [1] is T1, human H4 receptor (Homo sapiens, UniProt Q9H3N8).
T1 construct: expressed in transfected cells
The experiment in a line: [3H]Histamine binding on membranes of CHO cells stably expressing human H4 receptor. Summed up: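 Filter-bound counts (liquid scintillation) gave H4 binding. Incubation used 20 μg membrane protein/well in Tris/HCl 50 mM plus EDTA 0.5 mM at pH 7.4, and 10 μM JNJ 7777120 set nonspecific binding. Filtration on GF/B pretreated with polyethyleneimine stopped the reaction.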

T1 sequence (Q9H3N8 whole entry): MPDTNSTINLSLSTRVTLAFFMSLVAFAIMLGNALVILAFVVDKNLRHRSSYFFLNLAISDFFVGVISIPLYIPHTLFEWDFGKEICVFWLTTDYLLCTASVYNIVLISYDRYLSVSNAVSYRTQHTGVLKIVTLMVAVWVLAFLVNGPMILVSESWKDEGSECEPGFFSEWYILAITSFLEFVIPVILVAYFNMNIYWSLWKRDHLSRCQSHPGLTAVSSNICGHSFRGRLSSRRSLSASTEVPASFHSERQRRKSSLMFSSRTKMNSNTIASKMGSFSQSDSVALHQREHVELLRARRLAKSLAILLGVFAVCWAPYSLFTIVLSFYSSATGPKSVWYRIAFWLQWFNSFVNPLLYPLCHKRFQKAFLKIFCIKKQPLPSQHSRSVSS

`CN1CCC(OC(c2cccc(OCCCCN3CCN(C(=O)OC(C)(C)C)CC3)c2)c2nc3ccccc3[nH]2)CC1` (stereo not shown) [Example 343, 4-(4-{3-[(1H-benzimidazol-2-yl)(1-methylpiperidin-4-yloxy)methyl]phenoxy}butyl)piperazine-1-carboxylic acid tert-butyl ester]: the melting point was 64 °C. The Ki or IC50 activity class in data set [1] is < 300 nM.
The matching figures for `CN1CCC(OC(c2nc3ccccc3[nH]2)c2cccc(SCCN)c2F)CC1` (stereo not shown) [Example 352, 2-{3-[(1H-benzimidazol-2-yl)(1-methylpiperidin-4-yloxy)methyl]-2-fluorophenylsulfanyl}ethylamine]: 204 °C and < 300 nM.
The matching figures for `CN1CCC(OC(c2cccc(OCCCCCN3CCN(C(=O)OC(C)(C)C)CC3)c2)c2nc3ccccc3s2)CC1` (stereo not shown) [Example 362, 4-(5-{3-[benzothiazol-2-yl(1-methylpiperidin-4-yloxy)methyl]phenoxy}pentyl)piperazine-1-carboxylic acid tert-butyl ester]: 131 °C and < 1000 nM.
Compound `CN1CCC(OC(c2cccc(CCCCCCNC(=N)NC(=O)OC(C)(C)C)c2)c2nc3ccccc3[nH]2)CC1` (stereo not shown) [Example 364, N-tert-butoxycarbonyl-N′-(6-{3-[(1H-benzimidazol-2-yl)(1-methylpiperidin-4-yloxy)methyl]phenyl}hexyl)guanidine] showed a melting point of 90 °C. Besides, in data set [1], the Ki or IC50 activity class is < 1000 nM.
Regarding `CN1CCC(NC(c2cccc(OCCCCN)c2)c2nc3ccccc3[nH]2)CC1` (stereo not shown) [Example 367, [[3-(4-aminobutoxy)phenyl](1H-benzimidazol-2-yl)methyl](1-methylpiperidin-4-yl)amine], the melting point was found to be 68 °C. Further, the Ki or IC50 activity class in data set [1] is < 300 nM.
The like results for `CN1CCC(OC(c2cccc(SCCCN)c2)c2nc3ccccc3[nH]2)CC1` (stereo not shown) [Example 368, 3-{3-[(1H-benzimidazol-2-yl)(1-methylpiperidin-4-yloxy)methyl]phenylsulfanyl}propylamine] were, in that order, 126 °C and < 30 nM.
The matching figures for `CN1CCC(OC(c2cccc(C#CC3CCCNC3)c2)c2nc3ccccc3[nH]2)CC1` (stereo not shown) [Example 380, 2-[(1-methylpiperidin-4-yloxy)(3-piperidin-3-ylethynylphenyl)methyl]-1H-benzimidazole]: 97 °C and < 300 nM.
The like results for `CN1CCC(OC(c2cccc(SCCNc3c(N)c(=O)c3=O)c2)c2nc3ccccc3[nH]2)CC1` (stereo not shown) [Example 385, 3-amino-4-(2-{3-[(1H-benzimidazol-2-yl)(1-methylpiperidin-4-yloxy)methyl]phenylsulfanyl}ethylamino)-cyclobut-3-ene-1,2-dione] were, in that order, 161 °C and < 300 nM.
Compound `CN1CCC(NC(c2cccc(OCCCCN)c2)c2nc3ccccc3s2)CC1` (stereo not shown) [Example 387, {[3-(4-aminobutoxy)phenyl]benzothiazol-2-yl-methyl}(1-methylpiperidin-4-yl)amine] displayed a melting point of 67 °C. Moreover, in data set [1], the Ki or IC50 activity class was < 30 nM.
The like results for `CN1CCC(OC(c2cccc(C#CC3CNC3)c2)c2nc3ccccc3[nH]2)CC1` (stereo not shown) [Example 388, 2-[(3-azetidin-3-ylethynylphenyl)(1-methylpiperidin-4-yloxy)methyl]-1H-benzimidazole] were, in that order, 131 °C and < 1000 nM.
The like results for `CN1CCC(OC(c2cccc(CCC3CNC3)c2)c2nc3ccccc3[nH]2)CC1` (stereo not shown) [Example 392, 2-[[3-(2-azetidin-3-ylethyl)phenyl](1-methylpiperidin-4-yloxy)methyl]-1H-benzimidazole] were, in that order, 146 °C and < 1000 nM.
The like results for `CN1CCC(OC(c2cccc(SCCC3CCCCN3)c2)c2nc3ccccc3[nH]2)CC1` (stereo not shown) [Example 395, 2-{(1-methylpiperidin-4-yloxy)[3-(2-piperidin-2-yl-ethylsulfanyl)phenyl]methyl}-1H-benzimidazole] were, in that order, 164 °C and < 300 nM.
`CN1CCC(OC(c2cccc(C#CCCNC(=N)NC(=O)OC(C)(C)C)c2)c2nc3ccccc3s2)CC1` (stereo not shown) [Example 399, N-tert-butoxycarbonyl-N′-(4-{3-[(benzothiazol-2-yl)(1-methylpiperidin-4-yloxy)methyl]phenyl}but-3-ynyl)guanidine] registered a melting point of 120 °C. Further, the Ki or IC50 activity class in data set [1] is < 300 nM.
Take `CN1CCC(COC(c2cccc(Br)c2)c2nc3ccccc3[nH]2)C1` (stereo not shown) [Example 414, 2-[(3-bromo-phenyl)(1-methylpyrrolidin-3-ylmethoxy)methyl]-1H-benzimidazole]: the melting point turned out to be 61 °C. Moreover, the Ki or IC50 activity class in data set [1] is < 300 nM.
The matching figures for `CN1CCC(OC(c2nc3ccccc3[nH]2)c2cc(F)ccc2F)CC1` (stereo not shown) [Example 424, 2-[(2,5-difluorophenyl)(1-methylpiperidin-4-yloxy)methyl]-1H-benzimidazole]: 140 °C and < 300 nM.
The compound `CN1CCC(OC(c2cccc(SCCCCO)c2)c2nc3cc(F)ccc3[nH]2)CC1` (stereo not shown) [Example 427, 4-{3-[(5-fluoro-1H-benzimidazol-2-yl)(1-methylpiperidin-4-yloxy)methyl]phenylsulfanyl}butan-1-ol] yielded a melting point of 85 °C. For the same compound, the Ki or IC50 activity class in data set [1] is < 300 nM.
In turn, `CN1CCC(OC(c2nc3ccccc3[nH]2)c2cc(OC(F)(F)F)ccc2F)CC1` (stereo not shown) [Example 433, 2-[(2-fluoro-5-trifluoromethoxyphenyl)(1-methylpiperidin-4-yloxy)methyl]-1H-benzimidazole] came in with a melting point of 95 °C. In data set [1], the Ki or IC50 activity class was < 30 nM.
In the case of `CN1CCC(OC(c2cccc(SCCNC(=N)N)c2)c2nc3cc(F)ccc3[nH]2)CC1` (stereo not shown) [Example 437, N-(2-{3-[(5-fluoro-1H-benzimidazol-2-yl)(1-methylpiperidin-4-yloxy)methyl]phenylsulfanyl}ethyl)guanidine], the melting point was found to be 170 °C. Moreover, the Ki or IC50 activity class in data set [1] was < 30 nM.
The like results for `CN1CCC(OC(c2cccc(SCC3=NCCN3)c2)c2nc3ccccc3[nH]2)CC1` (stereo not shown) [Example 468, 2-[[3-(4,5-dihydro-1H-imidazol-2-ylmethylsulfanyl)phenyl](1-methylpiperidin-4-yloxy)methyl]-1H-benzimidazole] were, in that order, 62 °C and < 300 nM.
The matching figures for `CN1CCC(OC(c2cccc(Br)c2)c2nc3cc(F)c(F)cc3[nH]2)CC1` (stereo not shown) [Example 469, 2-[(3-bromophenyl)(1-methylpiperidin-4-yloxy)methyl]-5,6-difluoro-1H-benzimidazole]: 70 °C and < 1000 nM.
The matching figures for `CN1CCC(OC(c2cccc(SCCCCO)c2)c2nc3cc(F)c(F)cc3[nH]2)CC1` (stereo not shown) [Example 470]: 60 °C and < 300 nM.
Turning to `CN1CCC(OC(c2cccc(Br)c2)c2nc3cc(F)c(F)c(F)c3[nH]2)CC1` (stereo not shown) [Example 481, 2-[(3-bromophenyl)(1-methylpiperidin-4-yloxy)methyl]-5,6,7-trifluoro-1H-benzimidazole], the melting point amounted to 140 °C. The Ki or IC50 activity class in data set [1] was < 1000 nM.
The matching figures for `CN1CCC(OC(c2nc3c(F)c(F)c(F)cc3[nH]2)c2cc(OC(F)(F)F)ccc2F)CC1` (stereo not shown) [Example 510]: 75 °C and < 300 nM.
The matching figures for `CN1CCC(OC(c2nc3cc(F)c(F)cc3[nH]2)c2cc(OC(F)(F)F)ccc2F)CC1` (stereo not shown) [Example 511]: 79 °C and < 300 nM.
The matching figures for `CN1CCC(OC(c2nc3ccccc3[nH]2)c2cc(OCC(F)(F)F)ccc2F)CC1` (stereo not shown) [Example 522]: 204 °C and < 30 nM.
`Cc1cc(F)c(C(OC2CCN(C)CC2)c2nc3ccccc3[nH]2)c(F)c1` (stereo not shown) [Example 523, 2-[(2,6-difluoro-4-methylphenyl)(1-methylpiperidin-4-yloxy)methyl]-1H-benzimidazole] showed a melting point of 211 °C. Further, in data set [1], the Ki or IC50 activity class was < 30 nM.
The like results for `CN1CCC(OC(c2nc3ccccc3[nH]2)c2c(F)cc(Cl)cc2F)CC1` (stereo not shown) [Example 527] were, in that order, 195 °C and < 30 nM.
`CN1CC=C(SC(c2cccc(Br)c2)c2nc3ccccc3[nH]2)CC1` (stereo not shown) [Example 530, 2-[(3-bromophenyl)(1-methyl-1,2,3,6-tetrahydropyridin-4-ylsulfanyl)methyl]-1H-benzimidazole]: the melting point came out at 189 °C. In data set [1], the Ki or IC50 activity class was < 1000 nM.
The like results for `COc1ccc(F)c(C(OC2CCN(C)CC2)c2nc3ccccc3[nH]2)c1F` (stereo not shown) [Example 534, 2-[(2,6-difluoro-3-methoxyphenyl)(1-methylpiperidin-4-yloxy)methyl]-1H-benzimidazole] were, in that order, 185 °C and < 300 nM.
The like results for `CCOc1ccc(F)c(C(OC2CCN(C)CC2)c2nc3ccccc3[nH]2)c1F` (stereo not shown) [Example 535] were, in that order, 130 °C and < 300 nM.
The like results for `CN1CCC(OC(c2ccc(C(F)(F)F)cc2)c2nc3ccccc3[nH]2)CC1` (stereo not shown) [Example 537] were, in that order, 86 °C and < 1000 nM.
`CN1CCC(OC(c2nc3ccccc3[nH]2)c2ccc(C(F)(F)F)cc2F)CC1` (stereo not shown) [Example 540] yielded a melting point of 91 °C. In addition, in data set [1], the Ki or IC50 activity class is < 300 nM.
Turning to `Cc1ccc(C(OC2CCN(C)CC2)c2nc3ccccc3[nH]2)c(C)c1` (stereo not shown) [Example 541], the melting point stood at 120 °C. The Ki or IC50 activity class in data set [1] was < 30 nM.
The like results for `COc1cccc(C(OC2CCN(C)CC2)c2nc3ccccc3[nH]2)c1` (stereo not shown) [Example 542] were, in that order, 83 °C and < 30 nM.
Consider `CN1CCC(OC(c2ccc3c(c2)OCCC3)c2nc3ccccc3[nH]2)CC1` (stereo not shown) [Example 543], for which the melting point worked out at 128 °C. In addition, the Ki or IC50 activity class in data set [1] was < 30 nM.
